Data set [1] can be described thus: Concentration of dabigatran in urine of a treated patient, read from curve of spiked urine. Also noted: species or system human. Here is the method:
This program quantifies the colors red, yellow and blue. […] Mean values were calculated from double values.

Another data set concerns the target T1, thrombin (Bos taurus, UniProt P00735).
T1 construct: purchased Chromogenix
As to the kind of experiment: Chromogenic thrombin (factor IIa) inhibition test with substrate S-2238, absorption at 405 nm. It is filed as biochemical. Particulars: samples of plasma, serum and urine spiked at different concentrations, FIGS. 2 and 3.

Protocol for thrombin: Dissolve 1 ampule thrombin 10 U with 1 ml aqua. dest and is brought to 11.5 ml with Tris-Buffer. Additionally, add 1 ml aprotinin 500 KIU/ml.
The concentration of Dabigatran and Hirudin was carried out using the standard curve. The concentration of Dabigatran/Hirudin was determined by the optical density (OD) of the sample.

`[H]/N=C(/N)c1ccc(NCc2nc3cc(C(=O)N(CCC(=O)O)c4ccccn4)ccc3n2C)cc1` [Dabigatran]: the concentration of dabigatran in data set [1] (human urine from a patient treated with dabigatran, undiluted) is given as 85 ng; in data set [1] (patient urine diluted 1:10 with urine not containing dabigatran), 8.5 ng; in data set [1] (patient urine diluted 1:100 with urine not containing dabigatran), 0.85 ng.

As to Hirudin, the “inhibition of the activity of thrombin and release of para-nitroaniline from chromogenic substrate S2238” value against thrombin was “in a dose-dependent manner”.

The values are drawn from patent US9944971B2, “Determination of direct thrombin inhibitors in fluids like serum or urine” (DOASENSE GmbH, priority 2011, dated 2018).
